In US12156918B2, “Neuroendocrine cancer targeted therapy” (THE UAB RESEARCH FOUNDATION, priority 2018, dated 2024):
Where a SMILES comes first, the peptide text is derived from it. [ ]: non-standard residue; d: D form. The star is where a group is joined. Dolaproine = CO[C@@H]([C@@H]1CCCN1)[C@@H](C)C(=O)O; Dil = CC[C@H](C)[C@H](NC)[C@@H](CC(=O)O)OC; X1 = C[C@@H](N*)[C@@H](O)c1ccccc1; NMeV = CN[C@H](C(=O)O)C(C)C

How the values were obtained:
[1] = tested on: BON-1 cells; test: In vitro anti-cancer toxicity (IC50), Luminescent Cell Viability Assay; assay type: cell-based, human; conditions: 3-day incubation
Method: In vitro anti-cancer toxicity (IC50). BON cell line was utilized to compare the toxicity of ADC. 75 uL of culture media containing cells (viability >95%) with a density of 5×10^4 cells/mL was added in each well of 96-well plate. ADC or MMAE solution was sterilized by 0.2 μm filter and diluted to different concentrations with complete medium. After 4-hr incubation in regular cell culture incubator, 75 μL of ADC or MMAE with gradient concentrations were mixed with cells in the 96-well plate. The well plate was covered by another 96-well plate filled with PBS to prevent medium evaporation during treatment period. After 3-day incubation, the toxicity result was generated through Luminescent Cell Viability Assay (Promega, Madison, […]).

[2] = tested on: microtubule; test: Microtubule de-polymerization imaging; assay type: cell-based, human; conditions: BON cell line
[3] = tested on: human CD8+ T cells; test: Flow cytometry of cytokine expression in CD3/CD28 stimulated T cells; assay type: cell-based; conditions: 2 days incubation (100 nM elsewhere in the source)
Method: Therefore, our novel anti-SSTR2 mAb has great potential as a drug delivery vehicle in the form of ADC. […] Using flow cytometry, we analyze the effect of our SSTR2 mAb on the expression of cytokines in the CD3/CD28 stimulated human CD8+ T cells after incubating with mAb for 2 days.
Moreover, the possible effect of the disclosed anti-SSTR2 mAb on cytokine production in CD8^+ T cells was also tested. Post CD3/CD28 stimulation, human CD8^+ T cells were incubated with either 100 nM of SST analog (Octreotide) or 100 nM of the anti-SSTR2 mAb for 2 days. After incubation, flow cytometry was performed to analyze the expression of IL-2 and IFN-γ.

Compound | IC50 [1] [nM] | mechanism of NET cell proliferation inhibition [2] | increase of IFN-γ expression [3] [folds] | increase of IL-2 expression [3] [folds]
CC[C@H](C)[C@@H]([C@@H](CC(=O)N1CCC[C@H]1[C@H](OC)[C@@H](C)C(=O)N[C@H](C)[C@@H](O)c1ccccc1)OC)N(C)C(=O)[C@@H](NC(=O)[C@@H](NC)C(C)C)C(C)C [MMAE, monomethyl auristatin E] (H-[NMeV]V[Dil][Dolaproine]-X1) | 2 | microtubule de-polymerization |  | 
C[C@@H](O)[C@@H]1NC(=O)[C@H](CCCCN)NC(=O)[C@@H](Cc2c[nH]c3ccccc23)NC(=O)[C@H](Cc2ccccc2)NC(=O)[C@@H](NC(=O)[C@H](N)Cc2ccccc2)CSSC[C@@H](C(=O)N[C@H](CO)[C@@H](C)O)NC1=O [Octreotide] |  |  | 2.2 | 1.6
